13 substances from paper PMC6214909, “An asparagine/glycine switch governs product specificity of human N-terminal methyltransferase NTMT2” (Communications Biology, 2018) can be followed below.

One assay addresses T1, NTMT2 (Homo sapiens, UniProt Q5VVY1).
T1 construct: DNA encoding human NTMT2 (residues 58–278) was amplified by PCR; SUMO (His8-SUMO of the pET28-MKH8SUMO vector, with TEV site) (N, cleaved yes); made in house; host or cells: Escherichia coli BL21 (DE3)
The experiment in a line: MALDI-MS methyltransferase activity assay, NTMT2. The note with it: 2 μM NTMT2, 10 μM peptide, 200 μM SAM, 25 mM Tris–HCl pH 7.5, 50 mM KCl, 37 °C, overnight. The class given is biochemical. The method, then:
(§1) A mixture (36 μL) of 2 μM enzyme (NTMT1 or NTMT2), 25 mM Tris–HCl pH 7.5, 50 mM KCl and 200 μM SAM was incubated at 37 °C for 5 min. 4 μL of 100 μM peptide substrate (final concentration 10 μM) was then added to initiate the reaction. The reaction was incubated overnight and then stopped with quenching solution (20 mM NH4H2PO4, 0.4% (v/v) TFA in 1:1 acetonitrile/water). Reaction mixtures were analyzed with an Applied Biosystems Voyager matrix-assisted laser desorption/ionization time-of-flight mass spectrometer. Processing of all spectra results in Data Explorer included application of a noise filter (correlation factor of 1.0) and a baseline correction. Areas of the monoisotopic peaks for all relevant species were combined to obtain a total area for each sample. The fraction of each methylation state was calculated by summing the areas of all the monoisotopic peaks for that state ([M + H]^+, [M + Na]^+, [M + K]^+, [M – H + 2Na]^+, [M – H + 2 K]^+, and [M – H + Na + K]^+) and then dividing by the total area.

A further assay relates to NTMT2-N89G mutant. The experiment in a line: MALDI-MS methyltransferase activity assay, NTMT2-N89G mutant. The class given is biochemical, human. Particulars: NTMT2-N89G under the same conditions (2 μM enzyme, 10 μM peptide, 200 μM SAM, pH 7.5, 37 °C, overnight). As for the experimental part: as §1
A further assay has as its system NTMT1. The experiment in a line: MALDI-MS methyltransferase activity assay, NTMT1. The note with it: 2 μM NTMT1, 10 μM peptide, 200 μM SAM, 25 mM Tris–HCl pH 7.5, 50 mM KCl, 37 °C, overnight. The class given is biochemical, human. As for the experimental part:
as §1

T1 sequence (Q5VVY1 58-278): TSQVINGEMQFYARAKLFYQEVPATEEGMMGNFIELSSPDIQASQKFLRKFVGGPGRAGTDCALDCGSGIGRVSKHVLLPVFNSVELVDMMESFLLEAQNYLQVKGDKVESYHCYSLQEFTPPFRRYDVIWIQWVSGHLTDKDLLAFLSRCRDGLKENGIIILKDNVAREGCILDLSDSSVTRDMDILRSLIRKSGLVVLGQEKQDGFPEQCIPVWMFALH

For “FPKRIA [synthetic XPKRIA hexapeptide substrate, X = F]”, on NTMT2, the Di-methylated fraction turned out to be 0.00%, the Mono-methylated fraction came to 50.22%, the Trimethylated fraction was determined as 0.00% and the Unmethylated fraction is 49.78%. In the assay on NTMT2-N89G mutant, this substance yielded a Di-methylated fraction of 0.00%, a Mono-methylated fraction of 100.00%, a Trimethylated fraction of 0.00% and an Unmethylated fraction of 0.00%. In the assay on NTMT1, this substance yielded a Di-methylated fraction of 97.34%, a Mono-methylated fraction of 0.00%, a Trimethylated fraction of 2.66% and an Unmethylated fraction of 0.00%.
At NTMT2, “CPKRIA [synthetic XPKRIA hexapeptide substrate, X = C]” displayed a Di-methylated fraction of 0.00%, a Mono-methylated fraction of 25.20%, a Trimethylated fraction of 0.00% and an Unmethylated fraction of 74.80%. In the assay with NTMT2-N89G mutant, the Di-methylated fraction is 0.00%, the Mono-methylated fraction was 63.38%, the Trimethylated fraction is on record as 0.00% and the Unmethylated fraction is listed as 36.62%. In the assay with NTMT1, this substance registered a Di-methylated fraction of 44.61%, a Mono-methylated fraction of 27.87%, a Trimethylated fraction of 0.00% and an Unmethylated fraction of 27.51%.
On NTMT2, “WPKRIA [synthetic XPKRIA hexapeptide substrate, X = W]” yielded a Di-methylated fraction of 0.00%, a Mono-methylated fraction of 36.35%, a Trimethylated fraction of 0.00% and an Unmethylated fraction of 63.65%. Moreover, in the assay with NTMT2-N89G mutant, the Di-methylated fraction is recorded as 0.00%, the Mono-methylated fraction came to 100.00%, the Trimethylated fraction stood at 0.00% and the Unmethylated fraction is given as 0.00%. In the assay on NTMT1, this substance showed a Di-methylated fraction of 17.46%, a Mono-methylated fraction of 67.03%, a Trimethylated fraction of 0.00% and an Unmethylated fraction of 15.51%.
At NTMT2, “LPKRIA [synthetic XPKRIA hexapeptide substrate, X = L]” registered a Di-methylated fraction of 0.00%, a Mono-methylated fraction of 3.16%, a Trimethylated fraction of 0.00% and an Unmethylated fraction of 96.84%. Also, in the assay on NTMT2-N89G mutant, the Di-methylated fraction turned out to be 0.00%, the Mono-methylated fraction turned out to be 18.14%, the Trimethylated fraction was found to be 0.00% and the Unmethylated fraction is 81.86%. In addition, in the assay with NTMT1, the Di-methylated fraction is given as 70.78%, the Mono-methylated fraction worked out at 26.28%, the Trimethylated fraction stood at 2.94% and the Unmethylated fraction came to 0.00%.
At NTMT2, “APKRIA [synthetic XPKRIA hexapeptide substrate, X = A]” yielded a Di-methylated fraction of 0.00%, a Mono-methylated fraction of 32.17%, a Trimethylated fraction of 0.00% and an Unmethylated fraction of 67.83%. In the assay with NTMT2-N89G mutant, this substance had a Di-methylated fraction of 26.21%, a Mono-methylated fraction of 71.86%, a Trimethylated fraction of 1.93% and an Unmethylated fraction of 0.00%. In the assay on NTMT1, this substance registered a Di-methylated fraction of 0.00%, a Mono-methylated fraction of 0.00%, a Trimethylated fraction of 100.00% and an Unmethylated fraction of 0.00%.
At NTMT2, “QPKRIA [synthetic XPKRIA hexapeptide substrate, X = Q]” came in with a Di-methylated fraction of 0.00%, a Mono-methylated fraction of 0.00%, a Trimethylated fraction of 0.00% and an Unmethylated fraction of 100.00%. In the assay with NTMT2-N89G mutant, this substance displayed a Di-methylated fraction of 0.00%, a Mono-methylated fraction of 32.39%, a Trimethylated fraction of 0.00% and an Unmethylated fraction of 67.61%. Besides, in the assay on NTMT1, the Di-methylated fraction amounted to 100.00%, the Mono-methylated fraction amounted to 0.00%, the Trimethylated fraction worked out at 0.00% and the Unmethylated fraction is 0.00%.
At NTMT2, “GPKRIA [synthetic XPKRIA hexapeptide substrate, X = G]” displayed a Di-methylated fraction of 20.14%, a Mono-methylated fraction of 15.31%, a Trimethylated fraction of 27.94% and an Unmethylated fraction of 36.61%. Moreover, in the assay on NTMT2-N89G mutant, the Di-methylated fraction is recorded as 19.61%, the Mono-methylated fraction was 6.64%, the Trimethylated fraction was found to be 60.27% and the Unmethylated fraction turned out to be 13.49%. For the same substance, in the assay on NTMT1, the Di-methylated fraction was 0.00%, the Mono-methylated fraction worked out at 0.00%, the Trimethylated fraction is recorded as 100.00% and the Unmethylated fraction stood at 0.00%.
On to “PPKRIA [synthetic XPKRIA hexapeptide substrate, X = P]”, for which, at NTMT2, the Di-methylated fraction worked out at 10.19%, the Mono-methylated fraction amounted to 38.00%, the Trimethylated fraction was 0.00% and the Unmethylated fraction is recorded as 51.81%. Also, in the assay on NTMT2-N89G mutant, the Di-methylated fraction is recorded as 4.45%, the Mono-methylated fraction is on record as 65.75% and the Trimethylated fraction was 0.00%. In the assay with NTMT1, this substance displayed a Di-methylated fraction of 100.00%, a Mono-methylated fraction of 0.00%, a Trimethylated fraction of 0.00% and an Unmethylated fraction of 0.00%.
In the case of “TPKRIA [synthetic XPKRIA hexapeptide substrate, X = T]”, on NTMT2, the Di-methylated fraction was determined as 0.00%, the Mono-methylated fraction is given as 0.00%, the Trimethylated fraction was determined as 0.00% and the Unmethylated fraction came to 100.00%. In the assay on NTMT2-N89G mutant, this substance had a Di-methylated fraction of 0.00%, a Mono-methylated fraction of 11.78%, a Trimethylated fraction of 0.00% and an Unmethylated fraction of 88.22%. In addition, in the assay on NTMT1, the Di-methylated fraction was determined as 33.51%, the Mono-methylated fraction is listed as 40.04%, the Trimethylated fraction came to 0.00% and the Unmethylated fraction was 26.44%.
At NTMT2, “HPKRIA [synthetic XPKRIA hexapeptide substrate, X = H]” showed a Di-methylated fraction of 0.00%, a Mono-methylated fraction of 39.05%, a Trimethylated fraction of 0.00% and an Unmethylated fraction of 60.95%. In the assay on NTMT2-N89G mutant, this substance registered a Di-methylated fraction of 1.61%, a Mono-methylated fraction of 98.39%, a Trimethylated fraction of 0.00% and an Unmethylated fraction of 0.00%. In addition, in the assay with NTMT1, the Di-methylated fraction is 100.00%, the Mono-methylated fraction is listed as 0.00%, the Trimethylated fraction amounted to 0.00% and the Unmethylated fraction was 0.00%.
At NTMT2, “YPKRIA [synthetic XPKRIA hexapeptide substrate, X = Y]” returned a Di-methylated fraction of 0.00%, a Mono-methylated fraction of 23.72%, a Trimethylated fraction of 0.00% and an Unmethylated fraction of 76.28%. Moreover, in the assay on NTMT2-N89G mutant, the Di-methylated fraction is 0.00%, the Mono-methylated fraction is given as 87.50%, the Trimethylated fraction came out at 0.00% and the Unmethylated fraction turned out to be 12.50%. Also, in the assay with NTMT1, the Di-methylated fraction amounted to 100.00%, the Mono-methylated fraction is recorded as 0.00%, the Trimethylated fraction is 0.00% and the Unmethylated fraction turned out to be 0.00%.
On NTMT2, “RPKRIA [synthetic XPKRIA hexapeptide substrate, X = R]” registered a Di-methylated fraction of 0.00%, a Mono-methylated fraction of 23.35%, a Trimethylated fraction of 0.00% and an Unmethylated fraction of 76.65%. In the assay on NTMT2-N89G mutant, this substance registered a Di-methylated fraction of 0.00%, a Mono-methylated fraction of 47.86%, a Trimethylated fraction of 0.00% and an Unmethylated fraction of 52.14%. In the assay with NTMT1, this substance yielded a Di-methylated fraction of 98.24%, a Mono-methylated fraction of 0.00%, a Trimethylated fraction of 1.76% and an Unmethylated fraction of 0.00%.
At NTMT2, “VPKRIA [synthetic XPKRIA hexapeptide substrate, X = V]” came in with a Di-methylated fraction of 0.00%, a Mono-methylated fraction of 0.00%, a Trimethylated fraction of 0.00% and an Unmethylated fraction of 100.00%. Besides, in the assay on NTMT2-N89G mutant, the Di-methylated fraction was determined as 0.00%, the Mono-methylated fraction is recorded as 4.18%, the Trimethylated fraction is reported as 0.00% and the Unmethylated fraction is recorded as 95.82%. In the assay on NTMT1, this substance returned a Di-methylated fraction of 45.70%, a Mono-methylated fraction of 54.30%, a Trimethylated fraction of 0.00% and an Unmethylated fraction of 0.00%.
